Data reported in US8530465B2, “1, 2-disubstituted amido-anthraquinone derivatives, preparation method and application thereof” (National Defense Medical Center, priority 2010, dated 2013).

Legend:
CAKI-1 = test: NCI drug screen, CAKI-1; assay type: cell-based, human; conditions: CAKI-1 (Renal Cancer); 1.00E−5 Molar
Description: (§1) In brief, cellular protein levels were determined after 48 hours of drug exposure by sulforhodamine B colorimetry. Through the use of a time 0 cell control, the cell growth can be determined for each cell line thus allowing calculations of the 50% growth inhibitory concentration (GI50), the total growth inhibition (TGI), and the 50% lethal concentration (LC50). Comparison to plates not exposed to drug permits determination of concentration and times of exposure conferring 50% net growth inhibition (GI50), TGI, and 50% cell kill (LC50).
(§2) The screening system in United State National Cancer Institute (NCI) is consisted of 60 kinds of different human cancer cells, which can be used to assay the growth-inhibiting ability or cell toxicity of a compound against various cancer and tumor at a certain concentration.

T-47D = test: NCI drug screen, T-47D; assay type: cell-based, human; conditions: T-47D (Breast Cancer); 1.00E−5 Molar
Description: as §1, §2

BT-549 = test: NCI drug screen, BT-549; assay type: cell-based, human; conditions: BT-549 (Breast Cancer); 1.00E−5 Molar
Description: as §1, §2

SK-OV-3 = test: NCI drug screen, SK-OV-3; assay type: cell-based, human; conditions: SK-OV-3 (Ovarian Cancer); 1.00E−5 Molar
Description: as §1, §2

ACHN = test: NCI drug screen, ACHN; assay type: cell-based, human; conditions: ACHN (Renal Cancer); 1.00E−5 Molar
Description: as §1, §2

SK-MEL-5 = test: NCI drug screen, SK-MEL-5; assay type: cell-based, human; conditions: SK-MEL-5 (Melanoma); 1.00E−5 Molar
Description: as §1, §2

SR = test: NCI drug screen, SR; assay type: cell-based, human; conditions: SR (Leukemia); 1.00E−5 Molar
Description: as §1, §2

OVCAR-8 = test: NCI drug screen, OVCAR-8; assay type: cell-based, human; conditions: OVCAR-8 (Ovarian Cancer); 1.00E−5 Molar
Description: as §1, §2

HOP-62 = test: NCI drug screen, HOP-62; assay type: cell-based, human; conditions: HOP-62 (Non-Small Cell Lung Cancer); 1.00E−5 Molar
Description: as §1, §2

HOP-92 = test: NCI drug screen, HOP-92; assay type: cell-based, human; conditions: HOP-92 (Non-Small Cell Lung Cancer); 1.00E−5 Molar
Description: as §1, §2

hTERT = test: Secreted alkaline phosphatase (SEAP) assay, PhTERT-SEAP (H1299); assay type: cell-based; conditions: Homo sapiens, 24 hours; for activity at 1 µM: NCI-H1299, Conc. 1 μM, read-out: Relative SEAP activity (%); for activity at 10 µM: NCI-H1299, Conc. 10 μM; for activity at 10 µM / activity at 100 µM: read-out: Relative SEAP activity (%) (converted); for activity at 100 µM: NCI-H1299, Conc. 100 μM
How it was run: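 Stable H1299 clone carrying the −3338 to +1 bp hTERT promoter upstream of SEAP; ~10^4 cells/well treated with varying drug amounts for 24 h at 37° C. Media heat-treated 65° C. 10 min, mixed with diethanolamine/MgCl2/L-homoarginine buffer and 12 mM p-nitrophenyl phosphate final; SEAP activity taken as rate of A405 increase.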

MCF7 = test: NCI drug screen, MCF7; assay type: cell-based, human; conditions: MCF7 (Breast Cancer); 1.00E−5 Molar
Description: as §1, §2

IGROV1 = test: NCI drug screen, IGROV1; assay type: cell-based, human; conditions: IGROV1 (Ovarian Cancer); 1.00E−5 Molar
Description: as §1, §2

UACC-62 = test: NCI drug screen, UACC-62; assay type: cell-based, human; conditions: UACC-62 (Melanoma); 1.00E−5 Molar
Description: as §1, §2

M14 = test: NCI drug screen, M14; assay type: cell-based, human; conditions: M14 (Melanoma); 1.00E−5 Molar
Description: as §1, §2

NCI-H522 = test: NCI drug screen, NCI-H522; assay type: cell-based, human; conditions: NCI-H522 (Non-Small Cell Lung Cancer); 1.00E−5 Molar
Description: as §1, §2

SK-MEL-28 = test: NCI drug screen, SK-MEL-28; assay type: cell-based, human; conditions: SK-MEL-28 (Melanoma); 1.00E−5 Molar
Description: as §1, §2

SNB-19 = test: NCI drug screen, SNB-19; assay type: cell-based, human; conditions: SNB-19 (CNS Cancer); 1.00E−5 Molar
Description: as §1, §2

[1] = MTT assay, PhTERT-SEAP (H1299); assay type: cell-based, human; conditions: human, H1299 cells carrying the PhTERT-SEAP reporter, PhTERT-SEAP (H1299); for viability at 1 μM: Conc. 1 μM, read-out: Relative MTT viability (%); for viability at 10 μM: Conc. 10 μM; for viability at 10 μM / viability at 100 μM: read-out: Relative MTT viability (%) (converted); for viability at 100 μM: Conc. 100 μM
How it was run: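 Cultured cells received MTT for 4 h at 37 °C, then lysis buffer overnight at 37 °C. Optical density was read at 550 nm.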

SF-539 = test: NCI drug screen, SF-539; assay type: cell-based, human; conditions: SF-539 (CNS Cancer); 1.00E−5 Molar
Description: as §1, §2

SNB-75 = test: NCI drug screen, SNB-75; assay type: cell-based, human; conditions: SNB-75 (CNS Cancer); 1.00E−5 Molar
Description: as §1, §2

MALME-3M = test: NCI drug screen, MALME-3M; assay type: cell-based, human; conditions: MALME-3M (Melanoma); 1.00E−5 Molar
Description: as §1, §2

DU145 = test: NCI drug screen, DU145; assay type: cell-based, human; conditions: DU145 (Prostate Cancer); 1.00E−5 Molar
Description: as §1, §2

SMILES | Growth Percent (BT-549) [%] | Growth Percent (ACHN) [%] | Growth Percent (SK-MEL-5) [%] | Growth Percent (HOP-62) [%] | Growth Percent (HOP-92) [%] | activity at 1 µM (hTERT) [%] | activity at 10 µM (hTERT) [%] | activity at 100 µM (hTERT) [%] | Growth Percent (MCF7) [%] | Growth Percent (IGROV1) [%] | Growth Percent (UACC-62) [%] | Growth Percent (M14) [%] | Growth Percent (NCI-H522) [%] | Growth Percent (SK-MEL-28) [%] | Growth Percent (SNB-19) [%] | viability at 1 μM [1] [%] | viability at 10 μM [1] [%] | Growth Percent (SF-539) [%] | Growth Percent (SNB-75) [%] | Growth Percent (MALME-3M) [%] | also measured
Cc1ccc(C(=O)Nc2ccc3c(c2NC(=O)c2ccc(C)cc2)C(=O)c2ccccc2C3=O)cc1 [CC-04, 1,2-bis-(4-methylbenzamido)-anthraquinone] | 95.39 | 112.43 | 94.04 | 105.23 | 91.21 | 108 ± 9.03 | 97.1 | 30.9 | 71.71 | 78.71 | 87.50 | 91.57 | 72.05 | 99.46 | 103.91 | 100 ± 4.4 | 117 | 97.26 | 102.26 | 127.16 | Growth Percent (CAKI-1): 94.89%; Growth Percent (T-47D): 100.00%; Growth Percent (SK-OV-3): 109.62%; Growth Percent (SR): 87.69%; Growth Percent (OVCAR-8): 85.43%; viability at 100 μM [1]: 62%; Growth Percent (DU145): 95.93%
Cc1ccc(C(=O)Nc2c(NC(=O)CCl)ccc3c2C(=O)c2ccccc2C3=O)cc1 [CC-12, 1-(4-methylbenzamido)-2-(chloroacetamido)-anthraquinone] | 28.19 | 21.92 | −98.72 | −28.62 | −68.77 | 110 ± 2.99 | -2.49 | -2.47 | −79.28 | 51.41 | −67.80 | −22.68 | 57.88 | −31.94 | 88.40 | 104 ± 7.83 | 2.77 | −31.42 | 6.31 | −22.41 | Growth Percent (T-47D): −49.46%; Growth Percent (SK-OV-3): 106.24%; Growth Percent (SR): −19.84%; Growth Percent (OVCAR-8): 8.72%; Growth Percent (DU145): −97.56%
O=C(CCl)Nc1ccc2c(c1NC(=O)Cc1ccccc1)C(=O)c1ccccc1C2=O [CC-23, 1-[2-(phenyl)acetylamino]-2-(chloroacetamido)-anthraquinone] | 79.78 | 79.64 | 51.32 | 115.67 | 73.63 | 84.8 ± 3.12 | 9.49 | 7.43 | 51.00 | 41.03 | 59.67 | 87.10 | 43.37 | 88.68 | 124.27 | 82 ± 1.79 | 5.94 | 107.09 | 109.14 | 47.07 | Growth Percent (SR): −31.25%; viability at 100 μM [1]: 3.98%; Growth Percent (DU145): 85.83%
Cc1ccc(C(=O)Nc2c(NC(=O)CN3CCCC3)ccc3c2C(=O)c2ccccc2C3=O)cc1 [CC-38, 1-(4-methylbenzamido)-2-[2-(tetrahydro-1H-1-pyrrolyl)acetylamino]-anthra quinone] | 81.58 | 82.23 | 61.74 | 113.43 | 59.33 | 81.7 ± 4.8 | 59.1 | 3.93 | 70.79 | 106.07 | 76.82 | 88.01 | 103.02 | 92.18 | 108.22 | 88.2 ± 4.94 | 69 | 81.29 | 66.03 | 82.24 | Growth Percent (CAKI-1): 55.64%; Growth Percent (T-47D): 44.33%; Growth Percent (SK-OV-3): 82.13%; Growth Percent (OVCAR-8): 65.02%; viability at 100 μM [1]: 5.05%; Growth Percent (DU145): 91.52%
